These compounds were tested against T1, p70S6K (Homo sapiens, UniProt P23443, T412E) (assay: p70S6 Kinase Assay (Luciferase-Coupled Chemiluminescent Kinase assay, LCCA)). Details: human p70S6 kinase domain residues 1-421, T412E; 5 μM ATP; read-out: p70S6K IC50.
T1 construct: human p70S6 kinase domain residues 1-421, containing a T412E mutation; made in house
Assay type: biochemical
Outline: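 Luciferase-coupled chemiluminescence measured percent ATP remaining after the 2 h kinase reaction at ambient temperature, with ATP near the kinase's KM. Ten inhibitor concentrations were tested. IC50 was obtained from a Hill-equation fit.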

T1 sequence (P23443 1-421 T412E): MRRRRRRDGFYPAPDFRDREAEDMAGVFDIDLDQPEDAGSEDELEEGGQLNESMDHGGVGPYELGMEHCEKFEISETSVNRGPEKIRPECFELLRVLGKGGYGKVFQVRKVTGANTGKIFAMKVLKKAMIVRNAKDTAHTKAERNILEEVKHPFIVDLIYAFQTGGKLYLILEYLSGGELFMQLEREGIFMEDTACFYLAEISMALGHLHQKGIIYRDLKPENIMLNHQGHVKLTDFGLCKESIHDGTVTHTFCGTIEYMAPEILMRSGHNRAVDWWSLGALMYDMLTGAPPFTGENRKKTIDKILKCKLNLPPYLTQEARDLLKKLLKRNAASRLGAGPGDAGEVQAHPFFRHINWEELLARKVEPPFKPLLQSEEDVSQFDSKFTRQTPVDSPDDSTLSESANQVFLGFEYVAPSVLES

`CSc1nc(N)nc(NC(C)(C)C(=O)Nc2cccc(C(F)(F)F)c2)c1C#N` [Example 81, N^2-[2-amino-5-cyano-6-(methylthio)pyrimidin-4-yl]-2-methyl-N-[3-(trifluoromethyl)phenyl]alaninamide] and `CSc1nc(N)nc(N[C@H](C)C(=O)Nc2cccc(C(F)(F)F)c2)c1C#N` [Example 83, N^2-[2-amino-5-cyano-6-(methylthio)pyrimidin-4-yl]-N-[3-(trifluoromethyl)phenyl]-D-alaninamide] cannot be ordered by IC50: over 2000 nM for the first, over 2000 nM for the second.

`CCOc1nc(N)nc(N[C@@H](CCC(N)=O)C(=O)Nc2cccc(C(F)(F)F)c2)c1C#N` [Example 175, N~2~-[2-amino-5-cyano-6-(ethyloxy)pyrimidin-4-yl]-N~1~-[3-(trifluoromethyl)phenyl]-L-glutamamide] and `CCOc1nc(N)nc(N[C@@H](CCC(=O)NN)C(=O)Nc2cccc(C(F)(F)F)c2)c1C#N` [Example 177, ′2-(2-amino-5-cyano-6-ethoxy-pyrimidin-4-ylamino)-4-hydrazinocarbonyl-N-(3-trifluoromethyl-phenyl)-butyramide] cannot be ordered by IC50: over 2000 nM for the first, over 2000 nM for the second.

`CCOc1nc(N)nc(N[C@@H](C)C(=O)Nc2cccc(C(F)(F)F)c2)c1C#N` [Example 88, N^2-[2-amino-5-cyano-6-(ethyloxy)pyrimidin-4-yl]-N-[3-(trifluoromethyl)phenyl]-L-alaninamide] and `COc1nc(N)nc(N[C@@H](C)C(=O)Nc2cccc(C(F)(F)F)c2)c1C#N` [Example 78, N^2-[2-amino-5-cyano-6-(methyloxy)pyrimidin-4-yl]-N-[3-(trifluoromethyl)phenyl]-L-alaninamide] cannot be ordered by IC50: over 2000 nM for the first, over 2000 nM for the second.

First: Nc1nc(Cl)c(C=O)c(OCC(=O)Nc2cccc(C(F)(F)F)c2)n1 [Example 50, 2-[(2-amino-6-chloro-5-formylpyrimidin-4-yl)oxy]-N-[3-(trifluoromethyl)phenyl]acetamide]
Second: CCOc1nc(N)nc(NNC(=O)Nc2cccc(C(F)(F)F)c2)c1C#N [Example 127, 2-[2-amino-5-cyano-6-(ethyloxy)pyrimidin-4-yl]-N-[3-(trifluoromethyl)phenyl]hydrazinecarboxamide]
The IC50 of the first is lower: 50 to 500 nM for the first, over 2000 nM for the second. The first is the more potent here.

Compared with `CSc1nc(N)nc(N[C@@H](C)C(=O)Nc2cc(C(=O)O)cc(C(F)(F)F)c2)c1C#N` [Example 145], `CSc1nc(N)nc(N[C@@H](C)C(=O)Nc2cc(N)cc(C(F)(F)F)c2)c1C#N` [Example 94, N^2-[2-amino-5-cyano-6-(methylthio)pyrimidin-4-yl]-N-[3-amino-5-(trifluoromethyl)phenyl]-L-alaninamide] is higher in IC50: 500 to 2000 nM for the first, over 2000 nM for the second.

`CC(C)Oc1nc(N)nc(N[C@@H](C)C(=O)Nc2cccc(C(F)(F)F)c2)c1C#N` [Example 122, N^2-{2-amino-5-cyano-6-[(1-methylethyl)oxy]pyrimidin-4-yl}-N-[3-(trifluoromethyl)phenyl]-L-alaninamide] and `C[C@H](Nc1nc(N)nc(OCCN(C)C)c1C#N)C(=O)Nc1cccc(C(F)(F)F)c1` [Example 102, N^2-(2-amino-5-cyano-6-{[2-(dimethylamino)ethyl]oxy}pyrimidin-4-yl)-N-[3-(trifluoromethyl)phenyl]-L-alaninamide] cannot be ordered by IC50: over 2000 nM for the first, over 2000 nM for the second.

`CSc1nc(N)nc(N(C)CC(=O)Nc2cccc(C)c2)c1C#N` [Example 109, N^2-[2-amino-5-cyano-6-(methylthio)pyrimidin-4-yl]-N^2-methyl-N-(3-methylphenyl)glycinamide] and `CSc1nc(N)nc(N(C)NC(=O)Nc2cccc(C(F)(F)F)c2)c1C#N` [Example 96, 2-[2-amino-5-cyano-6-(methylthio)pyrimidin-4-yl]-2-methyl-N-[3-(trifluoromethyl)phenyl]hydrazinecaboxamide] cannot be ordered by IC50: over 2000 nM for the first, over 2000 nM for the second.

First: CSc1nc(N)nc(N[C@@H](CCC(=O)O)C(=O)Nc2cccc(C(F)(F)F)c2)c1C#N [Example 149, N~2~-[2-amino-5-cyano-6-(methylthio)pyrimidin-4-yl]-N-[3-(trifluoromethyl)phenyl]-Lalpha-glutamine]
Second: CSc1nc(N)nc(N[C@@H](CCCCN)C(=O)Nc2cccc(C(F)(F)F)c2)c1C#N [Example 114, N^2-[2-amino-5-cyano-6-(methylthio)pyrimidin-4-yl]-N-[3-(trifluoromethyl)phenyl]-L-lysinamide]
The IC50 of the first is lower: 500 to 2000 nM for the first, over 2000 nM for the second.

First: CCOc1nc(N)nc(N[C@@H](CO)C(=O)Nc2cccc(C(F)(F)F)c2)c1C#N [Example 150, N~2~-[2-amino-5-cyano-6-(ethyloxy)pyrimidin-4-yl]-N-[3-(trifluoromethyl)phenyl]-L-serinamide]
Second: CCOc1nc(N)nc(N[C@@H](CN(C)C)C(=O)Nc2cccc(C(F)(F)F)c2)c1C#N [Example 176, N~2~-[2-amino-5-cyano-6-(ethyloxy)pyrimidin-4-yl]-3-(dimethylamino)-N-[3-(trifluoromethyl)phenyl]-L-alaninamide]
The IC50 of the first is lower: 500 to 2000 nM for the first, over 2000 nM for the second.

`COc1nc(N)nc(N[C@@H](C)C(=O)Nc2cc(OCCN(C)C)cc(C(F)(F)F)c2)c1C#N` [Example 179, N~2~-[2-amino-5-cyano-6-(methyloxy)pyrimidin-4-yl]-N-[3-{[2-(dimethylamino)ethyl]oxy}-5-(trifluoromethyl)phenyl]-L-alaninamide] and `COc1nc(N)nc(N[C@@H](C)C(=O)Nc2cc(C(=O)NCCN(C)C)cc(C(F)(F)F)c2)c1C#N` [Example 190, 3-({N-[2-amino-5-cyano-6-(methyloxy)pyrimidin-4-yl]-L-alanyl}amino)-N-[2-(dimethylamino)ethyl]-5-(trifluoromethyl)benzamide] cannot be ordered by IC50: over 2000 nM for the first, over 2000 nM for the second.

`CSc1nc(N)nc(SCC(=O)Nc2cccc(C(F)(F)F)c2C)c1C#N` [Example 53, 2-{[2-amino-5-cyano-6-(methylthio)pyrimidin-4-yl]thio}-N-[2-methyl-3-(trifluoromethyl)phenyl]acetamide] and `CNc1nc(N)nc(SCC(=O)Nc2cccc(C(F)(F)F)c2)c1C#N` [Example 61, 2-{[2-amino-5-cyano-6-(methylamino)pyrimidin-4-yl]thio}-N-[3-(trifluoromethyl)phenyl]acetamide] fall in the same range of IC50: 500 to 2000 nM for the first, 500 to 2000 nM for the second.

First: CNc1nc(NCC(=O)Nc2cccc(C(F)(F)F)c2)c(C#N)c(SC)n1 [Example 65, N^2-[5-cyano-2-(methylamino)-6-(methylthio)pyrimidin-4-yl]-N-[3-(trifluoromethyl)phenyl]glycinamide]
Second: CSc1nc(N)nc(NCCC[C@H](N)C(=O)Nc2cccc(C(F)(F)F)c2)c1C#N [Example 155, N~5~-[2-amino-5-cyano-6-(methylthio)pyrimidin-4-yl]-N-[3-(trifluoromethyl)phenyl]-L-ornithinamide]
The IC50 of the first is lower: 500 to 2000 nM for the first, over 2000 nM for the second. The first is the more potent here.

`COc1nc(N)nc(N(C)[C@@H](C)C(=O)Nc2cccc(OC(F)(F)F)c2)c1C#N` [Example 188, N~2~-[2-amino-5-cyano-6-(methyloxy)pyrimidin-4-yl]-N~2~-methyl-N-{3-[(trifluoromethyl)oxy]phenyl}-L-alaninamide] and `COc1nc(N)nc(N(C)[C@@H](C)C(=O)Nc2cccc(C(F)(F)F)c2)c1C#N` [Example 119, N^2-[2-amino-5-cyano-6-(methyloxy)pyrimidin-4-yl]-N^2-methyl-N-[3-(trifluoromethyl)phenyl]-L-alaninamide] cannot be ordered by IC50: over 2000 nM for the first, over 2000 nM for the second.

`CSc1nc(N)nc(N[C@@H](CCCNC(=N)N)C(=O)Nc2cccc(C(F)(F)F)c2)c1C#N` [Example 117, N^2-[2-amino-5-cyano-6-(methylthio)pyrimidin-4-yl]-N-[3-(trifluoromethyl)phenyl]-L-argininamide] and `CSc1nc(N)nc(N[C@@H](CCCN/C(N)=N/[N+](=O)[O-])C(=O)Nc2cccc(C(F)(F)F)c2)c1C#N` [Example 111, N^2-[2-amino-5-cyano-6-(methylthio)pyrimidin-4-yl]-N^5-[imino(nitroamino)methyl]-N-[3-(trifluoromethyl)phenyl]-L-omithinamide] cannot be ordered by IC50: over 2000 nM for the first, over 2000 nM for the second.

Compared with `COCCNCCC[C@H](Nc1nc(N)nc(SC)c1C#N)C(=O)Nc1cccc(C(F)(F)F)c1` [Example 144, N~2~-[2-amino-5-cyano-6-(methylthio)pyrimidin-4-yl]-N~5~-[2-(methyloxy)ethyl]-N-[3-(trifluoromethyl)phenyl]-L-omithinamide], `CCOc1nc(N)nc(N[C@@H](COC)C(=O)Nc2cccc(C(F)(F)F)c2)c1C#N` [Example 197, N~2~-[2-amino-5-cyano-6-(ethyloxy)pyrimidin-4-yl]-O-methyl-N-[3-(trifluoromethyl)phenyl]-L-serinamide] is higher in IC50: 500 to 2000 nM for the first, over 2000 nM for the second. The first is the more potent here.

`CCN(CC)CCOc1cccc(NC(=O)[C@H](C)Nc2nc(N)nc(SC)c2C#N)c1` [Example 92, N^2-[2-amino-5-cyano-6-(methylthio)pyrimidin-4-yl]-N-(3-{[2-(diethylamino)ethyl]oxy}phenyl)-L-alaninamide] and `COc1ccc(C(F)(F)F)cc1NC(=O)[C@H](C)Nc1nc(N)nc(SC)c1C#N` [Example 79, N^2-[2-amino-5-cyano-6-(methylthio)pyrimidin-4-yl]-N-[2-(methyloxy)-5-(trifluoromethyl)phenyl]-L-alaninmide] cannot be ordered by IC50: over 2000 nM for the first, over 2000 nM for the second.

`CSc1nc(N)nc(NC2(C(=O)Nc3cccc(C(F)(F)F)c3)CC2)c1C#N` [Example 73, 1-{[2-amino-5-cyno-6-(methylthio)pyrimidin-4-yl]amino}-N-[3-(trifluoromethyl)phenyl]cyclopropanecarboxamide] and `CSc1nc(N)nc(OC(C(=O)Nc2cccc(C(F)(F)F)c2)C(C)C)c1C#N` (stereo in doubt) [Example 70, (2S)-2-{[2-amino-5-cyano-6-(methylthio)pyrimidin-4-yl]oxy}-3-methyl-N-[3-(trifluoromethyl)phenyl]butanamide] cannot be ordered by IC50: over 2000 nM for the first, over 2000 nM for the second.

For `C[C@@H](C(=O)Nc1cccc(C(F)(F)F)c1)N(C)c1nc(N)nc([S+](C)[O-])c1C#N` (stereo partly drawn) [Example 118, N^2-[2-amino-5-cyano-6(methylsulfinyl)pyrimidin-4-yl]-N^2-methyl-N-[3-(trifluoromethyl)phenyl]-L-alaninamide], the IC50 was over 2000 nM.

From patent US7816353B2 (Exelixis, Inc., priority 2003, dated 2010)
